Assays:
Type in all cases: in vivo, human
[1] = Taste and smell of the compound alone
Protocol: A sucrose solution (4%) was prepared in water. Each of ligustrosidic acid and 2′-hydroxy ligustrosidic acid solutions of different concentrations was prepared in ethanol solution in water (50%). Ligustrosidic acid and 2′-hydroxy ligustrosidic acid were evaluated at 1 and 200 ppm, respectively. […] A sucrose solution (4%) was prepared in water. Each of verbascoside and isoverbascoside solutions of different concentrations was prepared in ethanol solution in water (50%). Verbascoside and isoverbascoside were evaluated at 1 and 200 ppm, respectively.

[2] = Enhancement of Luo Han Guo sweetness (flavor profile of Luo Han Guo solution with added substance); conditions: Luo Han Guo solution (120 ppm), over the levels tested
Protocol: A Luo Han Guo (Biovittoria Ltd., New Zealand) solution was prepared in water (120 ppm). Ligustrosidic acid and 2′-hydroxy ligustrosidic acid solutions were prepared as above (EXAMPLE II). The flavor profile of the Luo Han Guo solution with added ligustrosidic acid and 2′-hydroxy ligustrosidic acid is reported in the following: The effect of botanical extract such as Chaenomeles speciosa leave extract on sweetness was examined. Solutions of Chaenomeles speciosa leave extract containing ligustrosidic acid (0.61%), 2′-hydroxy ligustrosidic acid (0.62%), verbascoside (0.69%) and isoverbascoside (0.21%) were prepared in ethanol solution in water (50%) to obtain a series of concentrations ranging from 1 to 1000 ppm. Solutions of sucrose (4%) and Luo Han Guo (120 ppm) were prepared as above (EXAMPLE II and III). In addition, solutions of fructose (3.4%), Reb A (GLG Life Tech Corporation, Canada) (90 ppm) and GSG (Glucosyl Steviol Glucosides, GLG Life Tech Corporation, Canada) (200 ppm) were also prepared in water. The Luo Han Guo solution (120 ppm) with the addition of various amount of Chaenomeles speciosa leave extract was evaluated. The flavor profile is as follows: A Luo Han Guo (Biovittoria Ltd., New Zealand) solution was prepared in water (120 ppm). Verbascoside and isoverbascoside solutions were prepared as above (EXAMPLE XIII). The flavor profile of the Luo Han Guo solution with added verbascoside and isoverbascoside is reported in the following: […]

[3] = Enhancement of sucrose sweetness (flavor profile of sucrose solution with added substance); conditions: sucrose solution (4%); for overall effect when used with sucrose (summary in text): over the levels tested; for effect observed in sucrose solution: compound 5 ppm
Protocol: A sucrose solution (4%) was prepared in water. Each of ligustrosidic acid and 2′-hydroxy ligustrosidic acid solutions of different concentrations was prepared in ethanol solution in water (50%). Ligustrosidic acid and 2′-hydroxy ligustrosidic acid were evaluated at 1 and 200 ppm, respectively. […] Solutions of Chaenomeles speciosa leave extract containing ligustrosidic acid (0.61%), 2′-hydroxy ligustrosidic acid (0.62%), verbascoside (0.69%) and isoverbascoside (0.21%) were prepared in ethanol solution in water (50%) to obtain a series of concentrations ranging from 1 to 1000 ppm. Solutions of sucrose (4%) and Luo Han Guo (120 ppm) were prepared as above (EXAMPLE II and III). In addition, solutions of fructose (3.4%), Reb A (GLG Life Tech Corporation, Canada) (90 ppm) and GSG (Glucosyl Steviol Glucosides, GLG Life Tech Corporation, Canada) (200 ppm) were also prepared in water. The sucrose solution (4%) with the addition of various amount of Chaenomeles speciosa leave extract was evaluated. […] Each of verbascoside and isoverbascoside solutions of different concentrations was prepared in ethanol solution in water (50%). Verbascoside and isoverbascoside were evaluated at 1 and 200 ppm, respectively.

| Compound | taste and smell of the compound itself ([1]; evaluated at 200 ppm) | overall effect when used with Luo Han Guo (summary in text) [2] | overall effect when used with sucrose (summary in text) [3] | effect observed in sucrose solution [3] | taste and smell of the compound itself ([1]; evaluated at 1 ppm) | also measured |
| --- | --- | --- | --- | --- | --- | --- |
| 2′-hydroxy ligustrosidic acid | devoid of taste and smell | strong effect in sweetness enhancement | strong effect in sweetness enhancement |  |  |  |
| C[C@@H]1O[C@@H](O[C@@H]2[C@@H](O)[C@H](OCCc3ccc(O)c(O)c3)O[C@H](COC(=O)/C=C/c3ccc(O)c(O)c3)[C@H]2O)[C@H](O)[C@H](O)[C@H]1O [Isoverbascoside, isoverbascoside] | devoid of taste and smell | enhanced overall mouthfeel and suppressed Luo Han Guo's lingering off-taste | enhanced overall mouthfeel |  |  |  |
| C/C=C1\C(OC2OC(CO)C(O)C(O)C2O)OC=C(C(=O)OCCc2ccc(O)c(O)c2)C1CC(=O)OCCc1ccc(O)c(O)c1 (stereo not shown) [multifloroside] |  |  |  | Some mouthfeel, slight drying or slightly fruity effect |  |  |
| C[C@@H]1O[C@@H](O[C@@H]2[C@@H](O)[C@H](OCCc3ccc(O)c(O)c3)O[C@H](CO)[C@H]2OC(=O)/C=C/c2ccc(O)c(O)c2)[C@H](O)[C@H](O)[C@H]1O [Verbascoside, (E)-2-(3,4-dihydroxyphenyl)ethyl 3-O-(6-deoxy-α-L-mannopyranosyl)-4-[3-(3,4-dihydroxyphenyl)-2-propenoate]-β-D-Glucopyranoside] |  | particular effect in sweetness enhancement | particular effect in sweetness enhancement |  | devoid of taste and smell |  |
| COC(=O)C1=COC(OC2OC(CO)C(O)C(O)C2O)C(=CC(=O)O)C1CC(=O)OCCc1ccc(O)cc1 (stereo in doubt) [Ligustrosidic Acid, [3-(carboxymethylene)-2-(β-D-glucopyranosyloxy)-3,4-dihydro-5-(methoxycarbonyl)]-2H-pyran-4-acetic acid-α-[2-(4-hydroxyphenyl)ethyl] ester] |  |  |  |  | devoid of taste and smell | overall effect when used with Luo Han Guo (summary in text) ([2]; listed as Ligustrosidic acid): particularly strong effect; overall effect when used with Luo Han Guo (summary in text) ([2]; listed as ligustrosidic acid): enhanced overall sweetness, body and mouthfeel; overall effect when used with sucrose (summary in text) ([3]; listed as Ligustrosidic acid): particularly strong effect; overall effect when used with sucrose (summary in text) ([3]; listed as ligustrosidic acid): enhanced overall sweetness, body and mouthfeel |
| C/C=C1/[C@H](O[C@@H]2O[C@H](CO)[C@@H](O)[C@H](O)[C@H]2O)OC=C(C(=O)OC)[C@H]1CC(=O)OCCc1ccc(O)cc1 [ligustroside] |  |  |  | Some mouthfeel, slight drying or slightly fruity effect |  |  |

Reference: US20210177023A1, “COMPOUNDS FOR SWEETNESS ENHANCEMENT” (International Flavors & Fragrances Inc., priority 2019, published 2021)
